In patent publication US20030220396A1, “Method for treating ocular hypertension and glaucoma” (SUCAMPO AG, priority 2002, published 2003):

How the values were obtained:
Assay type in all cases: in vivo
[1] = system: intraocular pressure (IOP); assay: IOP lowering after instillation of ophthalmic solution in white rabbit (Comparative Example); conditions: for ΔIOP · AUC0-6 h Mean ± S.E.: 0.05 w/v% solution, 35 μL/eye, in mmHg·h (unit assumed)
Procedure: (§1) In the following examples, the osmolarity was measured by means of OSMOMETER (Model OM-801, VOGEL) at room temperature.
Three kinds of ophthalmic solutions each containing 0.05 w/v% of test substance 2 (13,14-dihydro-15-keto-20-ethyl-PGF2αisopropyl ester), which is a 15-keto-prostaglandin compound having a linear structure at the end of the ω chain, were prepared and used. The osmolarity ratio of the solutions were adjusted to 0.3 (osmolarity: 86 mOsm), 0.7 (osmolarity: 200 mOsm) and 1.0 (osmolarity: 286 mOsm), respectively. Each of the test solutions (35 μL/eye) was instilled serially into one eye of a white rabbit with one-week intervals between the installations.

[2] = system: intraocular pressure (IOP); assay: IOP lowering after instillation of ophthalmic solution in cynomolgus monkeys (Example 1); conditions: for ΔIOP · AUC0-24 h Mean ± S.E.: 0.001 w/v% solution, 30 μL/eye
Procedure: as §1
Two kinds of test ophthalmic solutions each containing 0.001 w/v% of test substance 1 (13,14-dihydro-15-keto-17-phenyl-18,19,20-trinor-PGF2αisopropyl ester), which is 15-keto-prostaglandin compound having a ring structure at the end of the ω chain were prepared. The osmolarity ratio of one solution was adjusted to 0.7 (osmolarity: 200 mOsm) and the other was adjusted to 1.0 (osmolarity: 286 mOsm). Nine cynomolgus monkeys were used for the example. One of the test solutions was instilled (30 μL/eye) into one eye of the monkey, and one week after, the other test solution was instilled (30 μL/eye) into the same eye.

[3] = system: intraocular pressure (IOP); assay: IOP lowering after instillation of ophthalmic solution in cynomolgus monkeys (Example 2); conditions: for ΔIOP · AUC0-24 h Mean ± S.E.: 0.001 w/v% solution, 30 μL/eye, in mmHg·h (unit assumed)
Procedure: as §1
Three kinds of ophthalmic solutions each containing 0.001 w/v% of test substance 1 were prepared and used. The osmolarity ratio of the solutions were adjusted to 0.8 (osmolarity: 229 mOsm), 1.0 (osmolarity: 286 mOsm) and 1.3 (osmolarity: 372 mOsm) respectively. Eight cynomolgus monkeys were used for this example. Test solutions were instilled to the monkey in the same manner as Example 1, i.e. 30 μL/eye of each solution was serially instilled to same eye with one-week intervals between the instillations.

[4] = osmolarity ratio 1.0 (286 mOsm)

Compound | ΔIOP · AUC0-6 h Mean ± S.E. ([1]; osmolarity ratio 0.3 (86 mOsm)) | ΔIOP · AUC0-6 h Mean ± S.E. ([1]; osmolarity ratio 0.7 (200 mOsm)) | ΔIOP · AUC0-6 h Mean ± S.E. [1, 4] | IOP lowering effect, comparison in words ([1]; osmolarity ratio 0.3, 0.7 and 1.0 compared, 0.05 w/v%) | ΔIOP · AUC0-24 h Mean ± S.E. ([2]; osmolarity ratio 0.7 (200 mOsm), in mmHg·h (unit assumed)) | ΔIOP · AUC0-24 h Mean ± S.E. ([2]; osmolarity ratio 1.0 (286 mOsm), p < 0.05 vs ratio 0.7, in mmHg·h (unit assumed)) | IOP lowering effect, comparison in words ([2]; osmolarity ratio 1.0 compared with osmolarity ratio 0.7, 0.001 w/v%) | ΔIOP · AUC0-24 h Mean ± S.E. ([3]; osmolarity ratio 0.8 (229 mOsm)) | ΔIOP · AUC0-24 h Mean ± S.E. [3, 4] | ΔIOP · AUC0-24 h Mean ± S.E. ([3]; osmolarity ratio 1.3 (372 mOsm)) | IOP lowering effect, comparison in words ([3]; osmolarity ratio 1.0 compared with osmolarity ratio 0.8 and 1.3, 0.001 w/v%)
CCCCCCCC(=O)CC[C@@H]1[C@@H](C/C=C\CCCC(=O)OC(C)C)[C@@H](O)C[C@H]1O [Test Substance 2, 13,14-dihydro-15-keto-20-ethyl-PGF2αisopropyl ester] | 18.9 ± 4.4 | 22.5 ± 5.1 | 20.3 ± 4.6 | substantially the same IOP lowering effect |  |  |  |  |  |  | 
CC(C)OC(=O)CCC/C=C\C[C@@H]1[C@@H](CCC(=O)CCc2ccccc2)[C@H](O)C[C@@H]1O [Test Substance 1, 13,14-dihydro-15-keto-17-phenyl-18,19,20-trinor-PGF2αisopropyl ester] |  |  |  |  | 22.8 ± 11.8 | 55.1 ± 10.7 | significantly greater IOP lowering effect | 41.1 ± 18.7 | 62.3 ± 19.3 | 37.9 ± 14.8 | greater IOP lowering effect
